Test results from ChEMBL document CHEMBL5058645, “Data for DCP probe JNJ-6204” (2022).

How the values were obtained:
[1] = target: Mitogen-activated protein kinase kinase kinase 5 (Homo sapiens) (UniProt Q99683); assay: ASK1(h) Kinase panel; conditions: Compound concentration 1.0 uM, tested as the 2H-labelled form
[2] = target: Serine/threonine-protein kinase B-raf (Homo sapiens) (UniProt P15056); assay: B-Raf(h) Kinase panel; conditions: Compound concentration 1.0 uM, tested as the 2H-labelled form
[3] = target: Calcium/calmodulin-dependent protein kinase type II subunit beta (Homo sapiens) (UniProt Q13554); assay: CaMKIIbeta(h) Kinase panel; conditions: Compound concentration 1.0 uM, tested as the 2H-labelled form
[4] = target: Calcium/calmodulin-dependent protein kinase kinase 1 (Homo sapiens) (UniProt Q8N5S9); assay: CaMKK1(h) Kinase panel; conditions: Compound concentration 1.0 uM, tested as the 2H-labelled form
[5] = target: Cyclin-dependent kinase 6 (Homo sapiens) (UniProt Q00534); assay: CDK6/cyclinD3(h) Kinase panel; conditions: Compound concentration 1.0 uM, tested as the 2H-labelled form
[6] = target: Cyclin-dependent kinase 9 (Homo sapiens) (UniProt P50750); assay: CDK9/cyclin T1(h) Kinase panel; conditions: Compound concentration 1.0 uM, tested as the 2H-labelled form
[7] = target: Serine/threonine-protein kinase 35 (Homo sapiens) (UniProt Q8TDR2); assay: CLIK1(h) Kinase panel; conditions: Compound concentration 1.0 uM, tested as the 2H-labelled form
[8] = target: Dual specificity protein kinase CLK1 (Homo sapiens) (UniProt P49759); assay: CLK1(h) Kinase panel; conditions: Compound concentration 1.0 uM, tested as the 2H-labelled form
[9] = target: Dual specificity protein kinase CLK4 (Homo sapiens) (UniProt Q9HAZ1); assay: CLK4(h) Kinase panel; conditions: Compound concentration 1.0 uM, tested as the 2H-labelled form
[10] = target: Death-associated protein kinase 2 (Homo sapiens) (UniProt Q9UIK4); assay: DAPK2(h) Kinase panel; conditions: Compound concentration 1.0 uM, tested as the 2H-labelled form
[11] = target: Dual specificity tyrosine-phosphorylation-regulated kinase 2 (Homo sapiens) (UniProt Q92630); assay: DYRK2(h) Kinase panel; conditions: Compound concentration 1.0 uM, tested as the 2H-labelled form
[12] = target: Vascular endothelial growth factor receptor 3 (Homo sapiens) (UniProt P35916); assay: Flt4(h) Kinase panel; conditions: Compound concentration 1.0 uM, tested as the 2H-labelled form
[13] = target: Macrophage colony-stimulating factor 1 receptor (Homo sapiens, UniProt P07333); assay: Fms(h) Kinase panel; conditions: Compound concentration 1.0 uM, tested as the 2H-labelled form
[14] = target: Rhodopsin kinase GRK7 (Homo sapiens) (UniProt Q8WTQ7); assay: GRK7(h) Kinase panel; conditions: Compound concentration 1.0 uM, tested as the 2H-labelled form
[15] = target: Tyrosine-protein kinase HCK (Homo sapiens) (UniProt P08631); assay: Hck(h) Kinase panel; conditions: Compound concentration 1.0 uM, tested as the 2H-labelled form
[16] = target: Homeodomain-interacting protein kinase 2 (Homo sapiens) (UniProt Q9H2X6); assay: HIPK2(h) Kinase panel; conditions: Compound concentration 1.0 uM, tested as the 2H-labelled form
[17] = target: Eukaryotic translation initiation factor 2-alpha kinase 1 (Homo sapiens) (UniProt Q9BQI3); assay: HRI(h) Kinase panel; conditions: Compound concentration 1.0 uM, tested as the 2H-labelled form
[18] = target: Inhibitor of nuclear factor kappa-B kinase subunit alpha (Homo sapiens) (UniProt O15111); assay: IKKalpha(h) Kinase panel; conditions: Compound concentration 1.0 uM, tested as the 2H-labelled form
[19] = target: Insulin receptor-related protein (Homo sapiens) (UniProt P14616); assay: IRR(h) Kinase panel; conditions: Compound concentration 1.0 uM, tested as the 2H-labelled form
[20] = target: Tyrosine-protein kinase JAK1 (Homo sapiens) (UniProt P23458); assay: JAK1(h) Kinase panel; conditions: Compound concentration 1.0 uM, tested as the 2H-labelled form
[21] = target: Mitogen-activated protein kinase 9 (Homo sapiens) (UniProt P45984); assay: JNK2alpha2(h) Kinase panel; conditions: Compound concentration 1.0 uM, tested as the 2H-labelled form
[22] = target: Serine/threonine-protein kinase LATS1 (Homo sapiens) (UniProt O95835); assay: LATS1(h) Kinase panel; conditions: Compound concentration 1.0 uM, tested as the 2H-labelled form
[23] = target: Mitogen-activated protein kinase 1 (Homo sapiens) (UniProt P28482); assay: MAPK1(h) Kinase panel; conditions: Compound concentration 1.0 uM, tested as the 2H-labelled form
[24] = target: Mitogen-activated protein kinase kinase kinase kinase 3 (Homo sapiens) (UniProt Q8IVH8); assay: MAP4K3(h) Kinase panel; conditions: Compound concentration 1.0 uM, tested as the 2H-labelled form
[25] = target: Dual specificity mitogen-activated protein kinase kinase 3 (Homo sapiens) (UniProt P46734); assay: MKK3(h) Kinase panel; conditions: Compound concentration 1.0 uM, tested as the 2H-labelled form
[26] = target: Dual specificity mitogen-activated protein kinase kinase 6 (Homo sapiens) (UniProt P52564); assay: MKK6(h) Kinase panel; conditions: Compound concentration 1.0 uM, tested as the 2H-labelled form
[27] = target: Myosin light chain kinase (Homo sapiens) (UniProt Q32MK0); assay: MLCK(h) Kinase panel; conditions: Compound concentration 1.0 uM, tested as the 2H-labelled form
[28] = target: FKBP12A/mTOR (Homo sapiens) (UniProt P62942+P42345); assay: mTOR/FKBP12(h) Kinase panel; type: protein-complex assay; conditions: Compound concentration 1.0 uM, tested as the 2H-labelled form
[29] = target: Muscle, skeletal receptor tyrosine-protein kinase (Homo sapiens) (UniProt O15146); assay: MuSK(h) Kinase panel; conditions: Compound concentration 1.0 uM, tested as the 2H-labelled form
[30] = target: Serine/threonine-protein kinase 38-like (Homo sapiens, UniProt Q9Y2H1); assay: NDR2(h) Kinase panel; conditions: Compound concentration 1.0 uM, tested as the 2H-labelled form
[31] = target: Serine/threonine-protein kinase NIM1 (Homo sapiens) (UniProt Q8IY84); assay: NIM1(h) Kinase panel; conditions: Compound concentration 1.0 uM, tested as the 2H-labelled form
[32] = target: Serine/threonine-protein kinase PAK 4 (Homo sapiens) (UniProt O96013); assay: PAK4(h) Kinase panel; conditions: Compound concentration 1.0 uM, tested as the 2H-labelled form
[33] = target: cAMP-dependent protein kinase catalytic subunit alpha (Homo sapiens) (UniProt P17612); assay: PKA(h) Kinase panel; conditions: Compound concentration 1.0 uM, tested as the 2H-labelled form
[34] = target: RAC-gamma serine/threonine-protein kinase (Homo sapiens) (UniProt Q9Y243); assay: PKBgamma (h) Kinase panel; conditions: Compound concentration 1.0 uM, tested as the 2H-labelled form
[35] = target: Protein kinase C epsilon type (Homo sapiens) (UniProt Q02156); assay: PKCepsilon (h) Kinase panel; conditions: Compound concentration 1.0 uM, tested as the 2H-labelled form
[36] = target: Tyrosine-protein kinase FRK (Homo sapiens) (UniProt P42685); assay: PTK5(h) Kinase panel; conditions: Compound concentration 1.0 uM, tested as the 2H-labelled form
[37] = target: Protein-tyrosine kinase 2-beta (Homo sapiens) (UniProt Q14289); assay: Pyk2(h) Kinase panel; conditions: Compound concentration 1.0 uM, tested as the 2H-labelled form
[38] = target: Proto-oncogene tyrosine-protein kinase receptor Ret (Homo sapiens) (UniProt P07949); assay: Ret(h) Kinase panel; conditions: Compound concentration 1.0 uM, tested as the 2H-labelled form
[39] = target: Ribosomal protein S6 kinase alpha-1 (Homo sapiens) (UniProt Q15418); assay: Rsk1(h) Kinase panel; conditions: Compound concentration 1.0 uM, tested as the 2H-labelled form
[40] = target: Ribosomal protein S6 kinase alpha-3 (Homo sapiens) (UniProt P51812); assay: Rsk2(h) Kinase panel; conditions: Compound concentration 1.0 uM, tested as the 2H-labelled form
[41] = target: Ribosomal protein S6 kinase alpha-2 (Homo sapiens) (UniProt Q15349); assay: Rsk3(h) Kinase panel; conditions: Compound concentration 1.0 uM, tested as the 2H-labelled form
[42] = target: Serine/threonine-protein kinase PLK2 (Homo sapiens) (UniProt Q9NYY3); assay: Snk(h) Kinase panel; conditions: Compound concentration 1.0 uM, tested as the 2H-labelled form
[43] = target: Serine/threonine-protein kinase 33 (Homo sapiens) (UniProt Q9BYT3); assay: STK33(h) Kinase panel; conditions: Compound concentration 1.0 uM, tested as the 2H-labelled form
[44] = target: BDNF/NT-3 growth factors receptor (Homo sapiens) (UniProt Q16620); assay: TrkB(h) Kinase panel; conditions: Compound concentration 1.0 uM, tested as the 2H-labelled form
[45] = target: Tau-tubulin kinase 2 (Homo sapiens) (UniProt Q6IQ55); assay: TTBK2(h) Kinase panel; conditions: Compound concentration 1.0 uM, tested as the 2H-labelled form
[46] = target: Wee1-like protein kinase (Homo sapiens) (UniProt P30291); assay: Wee1(h) Kinase panel; conditions: Compound concentration 1.0 uM, tested as the 2H-labelled form
[47] = target: Serine/threonine-protein kinase WNK2 (Homo sapiens) (UniProt Q9Y3S1); assay: WNK2(h) Kinase panel; conditions: Compound concentration 1.0 uM, tested as the 2H-labelled form
[48] = target: Serine/threonine-protein kinase WNK3 (Homo sapiens) (UniProt Q9BYP7); assay: WNK3(h) Kinase panel; conditions: Compound concentration 1.0 uM, tested as the 2H-labelled form
[49] = target: 5-hydroxytryptamine receptor 7 (Homo sapiens) (UniProt P34969); conditions: Compound concentration 10.0 uM, tested as the 2H-labelled form
[50] = target: Histamine H1 receptor (Homo sapiens) (UniProt P35367); conditions: Compound concentration 10.0 uM, tested as the 2H-labelled form
Rattus norvegicus = organism: Rattus norvegicus; conditions: Compound concentration 10.0 uM, tested as the 2H-labelled form
[51] = target: 3-phosphoinositide-dependent protein kinase 1 (Homo sapiens) (UniProt O15530); assay: PDK1(h) Kinase panel; conditions: Compound concentration 1.0 uM, tested as the 2H-labelled form

Chain of Cyclin-dependent kinase 6 (Homo sapiens) (Q00534 whole entry): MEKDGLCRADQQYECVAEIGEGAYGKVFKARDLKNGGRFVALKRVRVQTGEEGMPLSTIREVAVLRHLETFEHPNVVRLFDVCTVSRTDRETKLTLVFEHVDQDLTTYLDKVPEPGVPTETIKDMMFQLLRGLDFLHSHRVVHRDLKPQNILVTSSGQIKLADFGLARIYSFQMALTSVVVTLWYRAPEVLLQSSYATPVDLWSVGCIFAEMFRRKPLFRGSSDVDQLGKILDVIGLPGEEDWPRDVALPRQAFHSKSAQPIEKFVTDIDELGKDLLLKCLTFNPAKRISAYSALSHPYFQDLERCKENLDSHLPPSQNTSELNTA
Chain of Ribosomal protein S6 kinase alpha-3 (Homo sapiens) (P51812 whole entry): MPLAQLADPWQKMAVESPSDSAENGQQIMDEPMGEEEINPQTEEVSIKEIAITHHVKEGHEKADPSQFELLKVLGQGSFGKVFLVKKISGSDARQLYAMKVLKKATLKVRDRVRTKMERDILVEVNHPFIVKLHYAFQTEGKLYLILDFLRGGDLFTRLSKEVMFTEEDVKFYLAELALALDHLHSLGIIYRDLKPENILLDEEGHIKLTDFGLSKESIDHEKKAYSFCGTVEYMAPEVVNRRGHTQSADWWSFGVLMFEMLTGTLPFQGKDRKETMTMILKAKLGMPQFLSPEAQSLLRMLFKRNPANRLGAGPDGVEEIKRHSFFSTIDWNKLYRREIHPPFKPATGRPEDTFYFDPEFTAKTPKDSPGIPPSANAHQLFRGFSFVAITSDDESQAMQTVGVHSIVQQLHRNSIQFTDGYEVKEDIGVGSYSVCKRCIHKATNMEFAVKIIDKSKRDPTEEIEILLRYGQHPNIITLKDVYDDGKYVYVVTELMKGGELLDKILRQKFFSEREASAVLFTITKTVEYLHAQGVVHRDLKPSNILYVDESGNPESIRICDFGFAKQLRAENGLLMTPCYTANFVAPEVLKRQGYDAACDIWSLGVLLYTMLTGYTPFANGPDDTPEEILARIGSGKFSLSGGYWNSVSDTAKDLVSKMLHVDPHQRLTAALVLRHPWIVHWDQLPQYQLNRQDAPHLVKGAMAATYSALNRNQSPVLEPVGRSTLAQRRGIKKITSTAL
Chain of Insulin receptor-related protein (Homo sapiens) (P14616 27-742 limits assumed): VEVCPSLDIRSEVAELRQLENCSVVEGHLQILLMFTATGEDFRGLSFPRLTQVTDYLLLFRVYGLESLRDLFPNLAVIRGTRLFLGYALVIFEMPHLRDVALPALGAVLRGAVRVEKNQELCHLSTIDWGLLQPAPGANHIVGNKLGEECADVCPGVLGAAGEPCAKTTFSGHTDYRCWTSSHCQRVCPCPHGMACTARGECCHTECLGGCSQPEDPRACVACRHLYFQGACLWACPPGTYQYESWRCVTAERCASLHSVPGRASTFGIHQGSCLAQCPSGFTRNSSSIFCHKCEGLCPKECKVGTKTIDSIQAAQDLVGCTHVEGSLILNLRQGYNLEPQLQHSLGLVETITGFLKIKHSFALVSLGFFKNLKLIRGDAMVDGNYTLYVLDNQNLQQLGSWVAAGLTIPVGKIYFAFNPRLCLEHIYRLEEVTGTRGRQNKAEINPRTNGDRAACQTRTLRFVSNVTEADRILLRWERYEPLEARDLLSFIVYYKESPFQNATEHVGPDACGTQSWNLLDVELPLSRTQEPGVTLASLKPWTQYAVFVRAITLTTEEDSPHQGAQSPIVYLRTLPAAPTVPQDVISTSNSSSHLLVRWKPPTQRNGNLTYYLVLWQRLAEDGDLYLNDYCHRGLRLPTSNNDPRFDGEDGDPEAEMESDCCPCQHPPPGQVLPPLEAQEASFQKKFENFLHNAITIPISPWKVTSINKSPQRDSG
Chain of Insulin receptor-related protein (Homo sapiens) (P14616 747-1297 limits assumed): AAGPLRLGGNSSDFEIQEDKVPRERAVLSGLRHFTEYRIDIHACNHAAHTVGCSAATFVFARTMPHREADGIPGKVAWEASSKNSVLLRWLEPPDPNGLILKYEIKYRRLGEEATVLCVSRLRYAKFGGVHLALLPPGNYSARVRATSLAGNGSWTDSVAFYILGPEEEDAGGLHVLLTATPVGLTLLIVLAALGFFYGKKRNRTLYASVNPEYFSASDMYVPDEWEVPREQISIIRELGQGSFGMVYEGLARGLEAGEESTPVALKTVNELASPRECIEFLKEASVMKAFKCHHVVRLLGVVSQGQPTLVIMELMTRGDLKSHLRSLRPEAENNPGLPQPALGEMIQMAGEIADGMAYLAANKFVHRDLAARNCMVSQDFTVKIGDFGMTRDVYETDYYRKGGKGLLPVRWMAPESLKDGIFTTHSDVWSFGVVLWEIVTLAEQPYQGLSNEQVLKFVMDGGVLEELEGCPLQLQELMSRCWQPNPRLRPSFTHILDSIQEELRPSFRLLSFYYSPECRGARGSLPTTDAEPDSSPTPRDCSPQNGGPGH
Chain of Serine/threonine-protein kinase 38-like (Q9Y2H1 2-464 limits assumed): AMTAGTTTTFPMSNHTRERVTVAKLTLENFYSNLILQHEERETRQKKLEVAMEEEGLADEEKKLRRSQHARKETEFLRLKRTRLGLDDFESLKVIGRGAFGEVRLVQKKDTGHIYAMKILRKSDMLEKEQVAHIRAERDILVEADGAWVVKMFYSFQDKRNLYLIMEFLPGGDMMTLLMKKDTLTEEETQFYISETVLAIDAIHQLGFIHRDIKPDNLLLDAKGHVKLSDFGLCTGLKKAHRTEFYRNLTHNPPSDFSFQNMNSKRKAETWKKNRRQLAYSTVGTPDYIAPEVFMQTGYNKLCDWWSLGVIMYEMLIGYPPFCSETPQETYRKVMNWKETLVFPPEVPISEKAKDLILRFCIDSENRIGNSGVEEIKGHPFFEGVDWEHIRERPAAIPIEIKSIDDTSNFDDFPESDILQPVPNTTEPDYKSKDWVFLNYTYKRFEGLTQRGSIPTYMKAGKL
Chain of Serine/threonine-protein kinase 35 (Homo sapiens) (Q8TDR2 whole entry): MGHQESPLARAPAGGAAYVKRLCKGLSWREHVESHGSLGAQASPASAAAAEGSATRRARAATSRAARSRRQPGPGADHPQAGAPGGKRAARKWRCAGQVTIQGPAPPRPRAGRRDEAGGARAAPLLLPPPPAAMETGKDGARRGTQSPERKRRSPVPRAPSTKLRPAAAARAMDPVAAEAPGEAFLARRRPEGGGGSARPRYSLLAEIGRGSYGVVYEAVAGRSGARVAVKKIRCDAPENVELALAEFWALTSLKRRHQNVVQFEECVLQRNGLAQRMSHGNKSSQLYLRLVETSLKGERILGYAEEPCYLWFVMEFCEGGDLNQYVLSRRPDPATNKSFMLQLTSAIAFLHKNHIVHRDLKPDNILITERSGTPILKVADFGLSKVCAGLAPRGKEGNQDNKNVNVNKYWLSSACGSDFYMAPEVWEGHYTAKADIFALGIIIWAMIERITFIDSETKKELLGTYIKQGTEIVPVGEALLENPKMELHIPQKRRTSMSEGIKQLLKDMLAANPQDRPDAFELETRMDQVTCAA
Chain of Cyclin-dependent kinase 9 (Homo sapiens) (P50750 whole entry): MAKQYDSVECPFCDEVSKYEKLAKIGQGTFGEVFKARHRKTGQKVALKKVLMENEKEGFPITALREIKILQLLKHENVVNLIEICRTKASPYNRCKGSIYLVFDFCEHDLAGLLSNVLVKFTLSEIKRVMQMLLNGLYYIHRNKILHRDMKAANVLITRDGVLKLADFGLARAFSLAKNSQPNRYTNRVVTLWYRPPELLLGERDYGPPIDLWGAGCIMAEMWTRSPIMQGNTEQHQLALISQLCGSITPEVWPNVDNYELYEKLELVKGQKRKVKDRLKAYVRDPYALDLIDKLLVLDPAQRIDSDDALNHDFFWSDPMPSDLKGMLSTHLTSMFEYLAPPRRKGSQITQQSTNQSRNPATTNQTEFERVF
Chain of Wee1-like protein kinase (Homo sapiens) (P30291 whole entry, looked up): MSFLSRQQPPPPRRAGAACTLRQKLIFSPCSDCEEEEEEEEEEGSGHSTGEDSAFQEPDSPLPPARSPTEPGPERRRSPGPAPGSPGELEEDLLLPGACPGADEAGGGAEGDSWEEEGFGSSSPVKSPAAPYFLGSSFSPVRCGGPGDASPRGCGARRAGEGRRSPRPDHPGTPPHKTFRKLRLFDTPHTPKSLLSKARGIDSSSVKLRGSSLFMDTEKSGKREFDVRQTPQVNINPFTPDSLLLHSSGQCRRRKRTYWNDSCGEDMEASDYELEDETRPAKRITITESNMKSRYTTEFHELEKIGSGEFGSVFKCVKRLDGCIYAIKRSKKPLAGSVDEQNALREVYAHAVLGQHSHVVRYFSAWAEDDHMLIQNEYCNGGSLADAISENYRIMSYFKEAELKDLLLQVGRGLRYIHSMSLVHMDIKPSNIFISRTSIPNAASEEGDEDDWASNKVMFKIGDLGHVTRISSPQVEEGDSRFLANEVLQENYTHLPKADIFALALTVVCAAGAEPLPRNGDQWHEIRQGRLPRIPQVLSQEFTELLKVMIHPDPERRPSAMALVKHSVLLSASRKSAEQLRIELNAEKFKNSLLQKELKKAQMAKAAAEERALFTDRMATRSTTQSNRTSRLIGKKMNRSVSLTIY
Chain of Calcium/calmodulin-dependent protein kinase kinase 1 (Homo sapiens) (Q8N5S9 whole entry, looked up): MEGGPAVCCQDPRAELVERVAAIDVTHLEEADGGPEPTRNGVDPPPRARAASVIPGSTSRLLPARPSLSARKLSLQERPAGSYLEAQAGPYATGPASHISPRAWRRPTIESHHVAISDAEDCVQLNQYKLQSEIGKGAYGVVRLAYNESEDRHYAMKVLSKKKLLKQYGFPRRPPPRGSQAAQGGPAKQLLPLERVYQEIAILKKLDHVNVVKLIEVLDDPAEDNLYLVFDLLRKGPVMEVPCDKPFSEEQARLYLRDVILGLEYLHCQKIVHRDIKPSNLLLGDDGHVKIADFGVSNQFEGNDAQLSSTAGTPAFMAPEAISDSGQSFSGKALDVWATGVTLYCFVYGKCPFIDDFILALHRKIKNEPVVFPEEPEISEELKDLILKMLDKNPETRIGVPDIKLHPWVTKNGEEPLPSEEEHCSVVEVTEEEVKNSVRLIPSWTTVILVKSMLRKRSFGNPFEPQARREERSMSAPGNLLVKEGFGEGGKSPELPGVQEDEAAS
Chain of FKBP12A/mTOR (Homo sapiens) (P62942 2-108 limits assumed, other chains not shown): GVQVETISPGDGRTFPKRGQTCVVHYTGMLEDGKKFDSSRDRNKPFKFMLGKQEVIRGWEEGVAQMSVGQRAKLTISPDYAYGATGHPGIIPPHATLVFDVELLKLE

CC1(C)Cn2nc(-c3ccc(F)cn3)c(-c3ccnc4[nH]ncc34)c2CO1 showed an inhibition [1] of 12%, an inhibition [2] of 16% and an inhibition [3] of 18%. It also gave an inhibition [4] of 2%, an inhibition [5] of -7% and an inhibition [6] of -3%. For the same compound, the inhibition [7] was 13%, the inhibition [8] was 6% and the inhibition [9] was 15%. The inhibition [10] was -7%, the inhibition [11] was 0% and the inhibition [12] was 7%. For the same compound, the inhibition [13] was 0%, the inhibition [14] was 16% and the inhibition [15] was 25%. The inhibition [16] was 21%, the inhibition [17] was -6% and the inhibition [18] was 8%. For the same compound, the inhibition [19] was -4%, the inhibition [20] was -2% and the inhibition [21] was -2%. The inhibition [22] was 20%, the inhibition [23] was 20% and the inhibition [24] was -7%. For the same compound, the inhibition [25] was 7%, the inhibition [26] was 9% and the inhibition [27] was 19%. It also gave an inhibition [28] of 5%, an inhibition [29] of -7% and an inhibition [30] of 30%. It also gave an inhibition [31] of 13%, an inhibition [32] of -5% and an inhibition [33] of 16%. It also gave an inhibition [34] of 18%, an inhibition [35] of -5% and an inhibition [36] of 11%. It also gave an inhibition [37] of -2%, an inhibition [38] of 14% and an inhibition [39] of 9%. For the same compound, the inhibition [40] was 20%, the inhibition [41] was -7% and the inhibition [42] was -4%. The inhibition [43] was 5%, the inhibition [44] was -5% and the inhibition [45] was 0%. The inhibition [46] was 10%, the inhibition [47] was 8% and the inhibition [48] was -2%. It also gave an inhibition [49] of -3.57%, an inhibition [50] of -9.94% and an inhibition (Rattus norvegicus) of 50.9%. The inhibition [51] was 9%.
